Laboratory results from US10183047B2, “Chromium-containing compositions in combination with Phyllanthus emblica and shilajit having synergistic effects for improving endothelial function and cardiovascular health” (Natreon, Inc., priority 2014, dated 2019).

Key:
Format in all cases: in vivo, human
lipid profile = experiment: Lipid profile (TC, HDL-C, LDL-C, TG, VLDL-C), type 2 diabetics; conditions: for HDL / LDL / TC / TG: DM, 400 mcg; for Mean percentage change in HDL-C / Mean percentage change in LDL-C / Mean percentage change in Total Cholesterol / Mean percentage change in Triglycerides / HDL-C Post Tt / LDL-C Post Tt / Total Cholesterol Post Tt / Triglycerides Post Tt / HDL-C Pre Tt / LDL-C Pre Tt / Total Cholesterol Pre Tt / Triglycerides Pre Tt: type 2 diabetics (Example 3), chromium products 400 mcg; for Mean percentage change in HDL-C / Mean percentage change in LDL-C / Mean percentage change in Total Cholesterol / Mean percentage change in Triglycerides: 12 weeks of treatment; for HDL-C Post Tt / LDL-C Post Tt / Total Cholesterol Post Tt / Triglycerides Post Tt: post-treatment, 12 weeks; for HDL-C Pre Tt / LDL-C Pre Tt / Total Cholesterol Pre Tt / Triglycerides Pre Tt: pre-treatment
Description: The present clinical study is a prospective, randomized, double blind, placebo-controlled study. Patients of either sex, aged 30-65 years, fasting plasma glucose of 110-126 mg/dl, a glycosylated hemoglobin (HbA1c) between 6.5% and 8% and taking stable dose of anti-diabetic treatment (metformin 1500-2000 mg/day) for the past 8 weeks prior to the screening visit; and having endothelial dysfunction defined as ≤6% change in reflection index (RI) on post salbutamol challenge test were included in the study. Patients with severe uncontrolled hyperglyceamia, uncontrolled hypertension, cardiac arrhythmia, impaired hepatic or renal function, history of malignancy or stroke, smoking, chronic alcoholism, any other serious disease requiring active treatment and treatment with any other herbal supplements, were excluded from the study.
After screening, all the eligible subjects were randomized to receive either one of the three treatments orally for duration of 12 weeks—Group1—one capsule of Crominex®3+, 200 mcg once daily, Group 2—one capsule Crominex®3+, 400 mcg once daily; Group 3—one capsule of placebo once daily.
Subjects were required for follow up at 4, 8 and 12 weeks of therapy. At each visit they were evaluated for efficacy and safety. Pharmacodynamic evaluation for endothelial function was conducted at every visit. Blood samples were collected for evaluation of biomarkers before and at the end of treatment. Safety lab investigations for hematological, hepatic and renal biochemical parameters were conducted before and at the end of the study and also as and when required (in case of any adverse drug reaction (ADR). Subjects were enquired for the presence of ADR and the same was recorded in the case report form. Compliance to therapy was assessed by pill count method.
All the subjects had undergone complete physical examination, safety lab evaluations at baseline and at the end of the treatment. Samples were collected after an overnight fast of 12 hrs after the last dose of medication for determination of hemoglobin, glycosylated hemoglobin (HbA1c), blood urea, serum creatinine, liver function, lipid profile (Total cholesterol, High density lipoprotein cholesterol (HDL-C), low density lipoprotein cholesterol (LDL-C) using appropriate standard techniques.
(§1) When the results with Crominex® 3+ in the above two examples were highly significant, especially with the 400 mcg once daily dose in type 2 diabetics, two more clinical studies (EXAMPLES 3 & 4) were conducted at the same institute, following the same methodology as described earlier, on the individual components of Crominex® 3+, i.e., chromium chloride and Phyllanthus emblica+Shilajit, and other chromium supplements available in the market, i.e., chromium picolinate, chromium polynicotinate and chromium dinicocysteinate, in type 2 diabetics as well as in subjects with metabolic syndrome symptoms.

endothelial function = experiment: Reflection index (RI), salbutamol challenge test, metabolic syndrome subjects; conditions: for RI: MS, 400 mcg; for Absolute change in RI / RI, % Post Tt / RI, % Pre Tt: metabolic syndrome subjects (Example 4), chromium products 400 mcg; for Absolute change in RI / RI, % Post Tt: after 12 weeks of treatment; for RI, % Pre Tt: pre-treatment
Source text: A salbutamol (albuterol) challenge test employing digital volume plethysmography was used to assess endothelial function as reported by Chowienczyk et al., “Photoplethysmographic assessment of pulse wave reflection: blunted response to endothelium dependant beta 2-adrenergic vasodilation in type 2 diabetes mellitus,” J. Am. Coll. Cardiol. (1999 December) 34(7):2007-14; and Naidu, et al., “Comparison of two β2 adrenoceptor agonists by different routes of administration to assess human endothelial function,” Indian J. Pharmacol. (2007) 39:168-9. The patients were examined in supine position after 5 minutes of rest. A digital volume pulse (DVP) was obtained using a photo plethysmograph (Pulse Trace PCA2, PT200, Micro Medical, Gallingham, Kent, UK) transmitting infrared light at 940 nm, placed on the index finger of the right hand. The signal from the plethysmograph was digitized using a 12 bit analogue to digital converter with a sampling frequency of 100 Hz. DVP waveforms were recorded over 20 second period and the height of the late systolic/early diastolic portion of the DVP was expressed as a percentage of the amplitude of the DVP to yield the reflection index (RI), per the procedure described in detail by Millasseau et al., “Determination of age related increases in large artery stiffness by digital pulse contour analysis,” Clinical Science (2002) 103: 371-377. Three DVP recordings were taken, and measurements of reflection index (RI) were calculated and the mean value was determined. Patients were then administered 400 μg of salbutamol by inhalation. After 15 minutes three measurements of RI were obtained again and the difference in mean RI before and after administration of salbutamol was used for assessing endothelial function. A change of ≤6% in RI post-salbutamol was considered as endothelial dysfunction.
(§2) Patients included in the study, were of either gender, aged 30-68 years, having endothelial dysfunction defined as ≤6% change in reflection index (RI) on post salbutamol challenge test and central obesity as defined by The International Diabetes Federation guidelines, dated 2006, and any two of the following conditions:
(§3) After screening, all the eligible subjects were randomized to receive either one of the three treatments orally for duration of 12 weeks: group 1—one capsule of Crominex®3+ 200 mcg once daily; group 2—one capsule 400 mcg once daily; group 3—one capsule of Placebo once daily.
(§4) Subjects were reviewed for follow up at 4 weeks, 8 and 12 weeks of therapy. At each visit they were evaluated for efficacy and safety. Pharmacodynamic evaluation for endothelial function was conducted at baseline and end of treatment. Blood samples were collected for evaluation of biomarkers before and at end of treatment. Safety lab investigations for hematological, hepatic and renal biochemical parameters were conducted before and at the end of the study and also as and when required (in case of any adverse drug reaction (ADR)). Subjects were enquired for the presence of ADR and the same was recorded in the case report form. Compliance to therapy was assessed by pill count method.
(§5) Assessment of endothelial function, biomarkers, safety parameters and primary and secondary efficacy parameters and data analysis were performed as described under the study with type 2 diabetic subjects in Example 1.
as §1

nitric oxide (NO) = experiment: Nitric oxide level, metabolic syndrome subjects; conditions: for NO: MS, 400 mcg; for NO Post Tt / Mean percentage change in NO / NO Pre Tt: metabolic syndrome subjects (Example 4), chromium products 400 mcg; for NO Post Tt: after 12 weeks of treatment; for Mean percentage change in NO: after 12 weeks treatment; for NO Pre Tt: pre-treatment
Description: (§6) Nitric oxide, MDA, Glutathione and levels were estimated spectrophotometrically as follows. Malondialdehyde (MDA) levels were determined as described in Vidyasagar, et al., “Oxidative stress and antioxidant status in acute organophosphorous insecticide poisoning,” Indian J. Pharmacol. (April 2004) 36(2): 76-79. Glutathione levels were determined as described in G. L. Ellman, Arch. Biochem. Biophys. (1959) 82: 70-77 (original determination). Nitric oxide levels were estimated spectrophotometrically as described in Miranda, et al., “A Rapid, Simple Spectrophotometric Method for Simultaneous Detection of Nitrate and Nitrite,” NITRIC OXIDE: Biology and Chemistry (2001) Vol. 5, No. 1, pp. 62-71. hsCRP (high sensitivity C-reactive protein) was determined by ELISA method.
as §2, §3, §4, §5, §1

glutathione (GSH) = experiment: Glutathione level, metabolic syndrome subjects; conditions: for GSH: MS, 400 mcg; for GSH Post Tt / Mean percentage change in GSH / GSH Pre Tt: metabolic syndrome subjects (Example 4), chromium products 400 mcg; for GSH Post Tt: after 12 weeks of treatment; for Mean percentage change in GSH: after 12 weeks treatment; for GSH Pre Tt: pre-treatment
Description: as §6, §2, §3, §4, §5, §1

Compound | HDL (lipid profile) [%] | LDL (lipid profile) [%] | TC (lipid profile) [%] | TG (lipid profile) [%] | Mean percentage change in HDL-C (lipid profile) | Mean percentage change in LDL-C (lipid profile) | Mean percentage change in Total Cholesterol (lipid profile) | Mean percentage change in Triglycerides (lipid profile) [NS %] | HDL-C Post Tt (lipid profile) | LDL-C Post Tt (lipid profile) | Total Cholesterol Post Tt (lipid profile) | Triglycerides Post Tt (lipid profile) | HDL-C Pre Tt (lipid profile) [mg/dL] | LDL-C Pre Tt (lipid profile) [mg/dL] | Total Cholesterol Pre Tt (lipid profile) [mg/dL] | Triglycerides Pre Tt (lipid profile) [mg/dL] | RI (endothelial function) [%] | Absolute change in RI (endothelial function) | RI, % Post Tt (endothelial function) | NO (nitric oxide (NO)) [%] | further results
O.O.O.O.O.O.[Cl][Cr]([Cl])[Cl] [Chromium chloride, Chromium chloride (CrCl3.6H2O)] | 2.79 | −1.3 | −0.28 | −0.49 | 2.79 ± 2.88 @NS % | −1.30 ± 1.42 NS % | −0.28 ± 0.81 #NS % | −0.49 ± 0.93 | 39.95 ± 2.72 mg/dL | 108.93 ± 10.40 mg/dL | 184.89 ± 9.67 NS mg/dl | 180.11 ± 7.80 $ mg/dl | 38.89 ± 2.85 | 110.33 ± 10.74 | 185.42 ± 9.68 | 181.00 ± 7.84 | −0.1 | −0.10 ± 1.34 #@ % | −3.43 ± 1.49 NS % | 5.5 | RI, % Pre Tt (endothelial function): −3.06 ± 1.98%; NO Post Tt (nitric oxide (NO)): 30.99 ± 4.46 μM/L; Mean percentage change in NO (nitric oxide (NO)): 5.50 ± 1.73%; NO Pre Tt (nitric oxide (NO)): 29.39 ± 4.43 μM/L; GSH (glutathione (GSH)): 4.2%; GSH Post Tt (glutathione (GSH)): 542.56 ± 46.51 μM/L; Mean percentage change in GSH (glutathione (GSH)): 4.17 ± 1.80%; GSH Pre Tt (glutathione (GSH)): 521.35 ± 49.06 μM/L
chromium dinicocysteinate | 1.19 | −0.81 | −0.38 | −0.37 | 1.19 ± 4.01 NS % | −0.81 ± 1.52 $NS % | −0.38 ± 0.86 #NS % | −0.37 ± 0.92 | 37.83 ± 2.90 NS mg/dl | 128.91 ± 16.46 $^ mg/dl | 201.28 ± 17.29 NS mg/dl | 172.67 ± 3.88 NS mg/dl | 37.39 ± 2.43 | 130.00 ± 16.71 | 202.06 ± 17.48 | 173.33 ± 4.83 | −0.98 | −0.98 ± 0.76 #@NS % | −4.58 ± 0.89 @ % | 7.68 | RI, % Pre Tt (endothelial function): −3.55 ± 1.09 ^ %; NO Post Tt (nitric oxide (NO)): 32.66 ± 3.88 μM/L; Mean percentage change in NO (nitric oxide (NO)): 7.68 ± 2.25%; NO Pre Tt (nitric oxide (NO)): 30.33 ± 3.58 μM/L; GSH (glutathione (GSH)): 5.4%; GSH Post Tt (glutathione (GSH)): 558.38 ± 33.94 μM/L; Mean percentage change in GSH (glutathione (GSH)): 5.41 ± 1.38%; GSH Pre Tt (glutathione (GSH)): 529.89 ± 33.97 μM/L
chromium polynicotinate | −1.23 | −0.38 | −0.68 | −0.68 | −1.23 ± 3.71 @NS % | −0.38 ± 2.10 @NS % | −0.68 ± 1.21$NS % | −0.68 ± 0.83 | 38.65 ± 1.42 NS mg/dl | 123.32 ± 8.70 NS mg/dl | 198.00 ± 8.64 $^ mg/dl | 180.15 ± 3.84 @ mg/dl | 39.15 ± 1.23 | 123.97 ± 9.73 | 199.40 ± 9.25 | 181.40 ± 4.47 | −1.51 | −1.51 ± 1.78 #@NS % | −3.85 ± 0.86 @ % | 5.35 | RI, % Pre Tt (endothelial function): −2.39 ± 2.18 ^ %; NO Post Tt (nitric oxide (NO)): 32.93 ± 4.66 μM/L; Mean percentage change in NO (nitric oxide (NO)): 5.35 ± 0.96%; NO Pre Tt (nitric oxide (NO)): 31.26 ± 4.46 μM/L; GSH (glutathione (GSH)): 5.1%; GSH Post Tt (glutathione (GSH)): 549.43 ± 20.18 μM/L; Mean percentage change in GSH (glutathione (GSH)): 5.09 ± 1.36%; GSH Pre Tt (glutathione (GSH)): 522.92 ± 20.68 μM/L
chromium picolinate | 2.96 | −2.35 | −0.99 | −0.58 | 2.96 ± 3.38 @NS % | −2.35 ± 1.81 @NS % | −0.99 ± 1.08NS % | −0.58 ± 1.04 | 39.84 ± 1.12 $ mg/dl | 119.07 ± 18.46 mg/dL | 194.68 ± 17.93 $ mg/dl | 178.84 ± 8.45 $ mg/dl | 38.74 ± 1.69 | 121.92 ± 18.50 | 196.63 ± 18.07 | 179.89 ± 8.65 | −3.25 | −3.25 ± 0.98 #@NS % | −6.45 ± 0.40 % | 13.9 | NO Post Tt (nitric oxide (NO)): 32.94 ± 3.79 μM/L; Mean percentage change in NO (nitric oxide (NO)): 13.92 ± 2.65%; NO Pre Tt (nitric oxide (NO)): 28.94 ± 3.56 μM/L; GSH (glutathione (GSH)): 7.1%; GSH Post Tt (glutathione (GSH)): 550.63 ± 26.21 μM/L; Mean percentage change in GSH (glutathione (GSH)): 7.07 ± 1.95%; GSH Pre Tt (glutathione (GSH)): 514.35 ± 25.09 μM/L
